Where two headings read alike, the source gives them in different places.
Columns and labels:
[1] = Cytotoxicity assay (XTT) in Calu-3 cells; format: cell-based, human; details: human, Calu-3 cells, Table 6
Description: In parallel, cytotoxicity assays were performed.

[2] = Pharmacokinetics of MB-905 in three pre-formulations in mice; format: in vivo
From the text: FIG. 21. Pharmacokinetics of MB-905 in three pre-formulations in mice.
Thus, the pre-formulation was used for most subsequent in vivo studies.

[3] = mouse, plasma, po, 3 mg/kg, 5% Carboxymethylcellulose, 3 mg/kg (v.o.)
[4] = mouse, plasma, po, 3 mg/kg, 5% Tween80 + 95% PEG400, 3 mg/kg (p.o.)
[5] = mouse, plasma, po, 3 mg/kg, 5% ethanol, 30% Propylene Glycol, 45% PEG 400, 20% water, 3 mg/kg (v.o.)
[6] = mouse, plasma, po, 30 mg/kg, 5% Carboxymethylcellulose, 30 mg/kg (p.o.)
[7] = mouse, plasma, po, 30 mg/kg, 5% Tween80 + 95% PEG400, 30 mg/kg (p.o.)
[8] = mouse, plasma, po, 30 mg/kg, 5% ethanol, 30% Propylene Glycol, 45% PEG 400, 20% water, 30 mg/kg (p.o.)
[9] = mouse, plasma, po, 550 mg/kg, 5% ethanol, 30% Propylene Glycol, 45% PEG 400, 20% water, 550 mg/kg (p.o.)

SMILES: c1coc(CNc2ncnc3[nH]cnc23)c1 [MB-905, kinetin]
- CC50 at 3 days ([1]; Calu-3, daily treatment): 538 µM
- CC50 at 3 days ([1]; Calu-3, single treatment): 620 µM
- Cmax ([2]; 5% ethanol, 30% Propylene Glycol, 45% PEG 400, 20% water, 30 mg/kg (p.o.)): 569.97 ng/mL
- Cmax ([2]; 5% ethanol, 30% Propylene Glycol, 45% PEG 400, 20% water, 550 mg/kg (p.o.)): 1053.37 ng/mL
- Tmax ([2]; CD1, mouse, plasma, po, 3 mg/kg, 5% Carboxymethylcellulose, 3 mg/kg (v.o.)): 0.25 h
- Cmax ([2]; CD1, mouse, plasma, po, 3 mg/kg, 5% Carboxymethylcellulose, 3 mg/kg (v.o.), read-out: Cmax): 70.2 ng/mL
- Tmax ([2]; CD1, mouse, plasma, po, 3 mg/kg, 5% Tween80 + 95% PEG400, 3 mg/kg (p.o.)): 0.25 h
- Cmax ([2]; CD1, mouse, plasma, po, 3 mg/kg, 5% Tween80 + 95% PEG400, 3 mg/kg (p.o.), read-out: Cmax): 60.8 ng/mL
- Tmax ([2]; CD1, mouse, plasma, po, 3 mg/kg, 5% ethanol, 30% Propylene Glycol, 45% PEG 400, 20% water, 3 mg/kg (v.o.)): 0.25 h
- Cmax ([2]; CD1, mouse, plasma, po, 3 mg/kg, 5% ethanol, 30% Propylene Glycol, 45% PEG 400, 20% water, 3 mg/kg (v.o.), read-out: Cmax): 64 ng/mL
- Tmax ([2]; CD1, mouse, plasma, po, 30 mg/kg, 5% Carboxymethylcellulose, 30 mg/kg (p.o.)): 0.25 h
- Cmax ([2]; CD1, mouse, plasma, po, 30 mg/kg, 5% Carboxymethylcellulose, 30 mg/kg (p.o.), read-out: Cmax): 504 ng/mL
- Tmax ([2]; CD1, mouse, plasma, po, 30 mg/kg, 5% Tween80 + 95% PEG400, 30 mg/kg (p.o.)): 0.25 h
- Cmax ([2]; CD1, mouse, plasma, po, 30 mg/kg, 5% Tween80 + 95% PEG400, 30 mg/kg (p.o.), read-out: Cmax): 507 ng/mL
- Tmax ([2]; CD1, mouse, plasma, po, 300 mg/kg, 5% Carboxymethylcellulose, 300 mg/kg (p.o.)): 8 h
- Cmax ([2]; CD1, mouse, plasma, po, 300 mg/kg, 5% Carboxymethylcellulose, 300 mg/kg (p.o.), read-out: Cmax): 1020 ng/mL
- Tmax ([2]; CD1, mouse, plasma, po, 300 mg/kg, 5% Tween80 + 95% PEG400, 300 mg/kg (p.o.)): 0.25 h
- Cmax ([2]; CD1, mouse, plasma, po, 300 mg/kg, 5% Tween80 + 95% PEG400, 300 mg/kg (p.o.), read-out: Cmax): 1030 ng/mL
- AUC [2, 3]: 107 ng·h/mL
- half-life [2, 3]: 2.18 h
- AUC [2, 4]: 153 ng·h/mL
- half-life [2, 4]: 2.63 h
- AUC [2, 5]: 98.4 ng·h/mL
- half-life [2, 5]: 1.92 h
- AUC [2, 6]: 525 ng·h/mL
- half-life [2, 6]: 1.67 h
- AUC [2, 7]: 1110 ng·h/mL
- half-life [2, 7]: 2.27 h
- AUC [2, 8]: 763 ng·h/mL
- Tmax [2, 8]: 0.25 h
- half-life [2, 8]: 3.61 h
- AUC ([2]; mouse, plasma, po, 300 mg/kg, 5% Carboxymethylcellulose, 300 mg/kg (p.o.)): 14800 ng·h/mL
- AUC ([2]; mouse, plasma, po, 300 mg/kg, 5% Tween80 + 95% PEG400, 300 mg/kg (p.o.)): 11500 ng·h/mL
- AUC [2, 9]: 11600 ng·h/mL
- Tmax [2, 9]: 1 h
- half-life [2, 9]: 8.63 h

— patent US20240207302A1, “ANTIVIRAL COMPOUNDS, METHODS FOR THE MANUFACTURING OF COMPOUNDS, ANTIVIRAL PHARMACEUTICAL COMPOSITION, USE OF THE COMPOUNDS AND METHOD FOR THE ORAL TREATMENT OF CORONAVIRUS INFECTION AND RELATED DISEASES THEREOF” (priority 2021, published 2024)
